In ChEMBL document CHEMBL5291721, “A preclinical secondary pharmacology resource illuminates target-adverse drug reaction associations of marketed drugs” (Nat Commun, 2023):

Legend:
[1] = target: T1, Muscarinic acetylcholine receptor M2 (Homo sapiens, UniProt P08172); type: functional, cell-based
T1 sequence (P08172 whole entry): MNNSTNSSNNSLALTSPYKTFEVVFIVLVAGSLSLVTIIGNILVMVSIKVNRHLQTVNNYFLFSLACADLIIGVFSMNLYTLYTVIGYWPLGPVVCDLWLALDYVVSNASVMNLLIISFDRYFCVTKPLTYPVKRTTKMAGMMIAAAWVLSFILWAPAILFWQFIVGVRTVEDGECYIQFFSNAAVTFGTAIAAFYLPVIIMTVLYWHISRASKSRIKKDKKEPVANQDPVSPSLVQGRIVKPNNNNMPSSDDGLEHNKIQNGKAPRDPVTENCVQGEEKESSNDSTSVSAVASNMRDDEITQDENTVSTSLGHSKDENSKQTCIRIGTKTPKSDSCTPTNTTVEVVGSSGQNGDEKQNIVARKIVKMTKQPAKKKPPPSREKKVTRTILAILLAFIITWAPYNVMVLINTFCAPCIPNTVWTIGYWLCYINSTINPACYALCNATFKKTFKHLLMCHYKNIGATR

[2] = target: Delta-type opioid receptor (Homo sapiens, UniProt P41143)
[3] = target: T2, Alpha-1A adrenergic receptor (Homo sapiens, UniProt P35348); type: functional, cell-based
T2 sequence (P35348 whole entry): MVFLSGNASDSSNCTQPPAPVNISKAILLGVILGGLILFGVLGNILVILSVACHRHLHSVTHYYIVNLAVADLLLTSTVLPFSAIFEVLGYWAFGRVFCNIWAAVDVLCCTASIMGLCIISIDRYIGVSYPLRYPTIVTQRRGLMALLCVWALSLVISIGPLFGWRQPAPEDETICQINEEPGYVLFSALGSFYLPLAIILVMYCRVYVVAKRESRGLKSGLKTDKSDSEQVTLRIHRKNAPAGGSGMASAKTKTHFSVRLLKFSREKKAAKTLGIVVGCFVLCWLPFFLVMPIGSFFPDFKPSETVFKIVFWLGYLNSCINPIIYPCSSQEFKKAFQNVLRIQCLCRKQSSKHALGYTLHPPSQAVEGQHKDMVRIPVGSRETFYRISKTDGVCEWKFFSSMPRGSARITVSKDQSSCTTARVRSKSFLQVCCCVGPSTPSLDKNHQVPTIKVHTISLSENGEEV

Vasopressin V2 receptor = Vasopressin V2 receptor (Homo sapiens, UniProt P30518)
Progesterone receptor = target: T3, Progesterone receptor (Homo sapiens, UniProt P06401); type: functional
T3 sequence (P06401 whole entry): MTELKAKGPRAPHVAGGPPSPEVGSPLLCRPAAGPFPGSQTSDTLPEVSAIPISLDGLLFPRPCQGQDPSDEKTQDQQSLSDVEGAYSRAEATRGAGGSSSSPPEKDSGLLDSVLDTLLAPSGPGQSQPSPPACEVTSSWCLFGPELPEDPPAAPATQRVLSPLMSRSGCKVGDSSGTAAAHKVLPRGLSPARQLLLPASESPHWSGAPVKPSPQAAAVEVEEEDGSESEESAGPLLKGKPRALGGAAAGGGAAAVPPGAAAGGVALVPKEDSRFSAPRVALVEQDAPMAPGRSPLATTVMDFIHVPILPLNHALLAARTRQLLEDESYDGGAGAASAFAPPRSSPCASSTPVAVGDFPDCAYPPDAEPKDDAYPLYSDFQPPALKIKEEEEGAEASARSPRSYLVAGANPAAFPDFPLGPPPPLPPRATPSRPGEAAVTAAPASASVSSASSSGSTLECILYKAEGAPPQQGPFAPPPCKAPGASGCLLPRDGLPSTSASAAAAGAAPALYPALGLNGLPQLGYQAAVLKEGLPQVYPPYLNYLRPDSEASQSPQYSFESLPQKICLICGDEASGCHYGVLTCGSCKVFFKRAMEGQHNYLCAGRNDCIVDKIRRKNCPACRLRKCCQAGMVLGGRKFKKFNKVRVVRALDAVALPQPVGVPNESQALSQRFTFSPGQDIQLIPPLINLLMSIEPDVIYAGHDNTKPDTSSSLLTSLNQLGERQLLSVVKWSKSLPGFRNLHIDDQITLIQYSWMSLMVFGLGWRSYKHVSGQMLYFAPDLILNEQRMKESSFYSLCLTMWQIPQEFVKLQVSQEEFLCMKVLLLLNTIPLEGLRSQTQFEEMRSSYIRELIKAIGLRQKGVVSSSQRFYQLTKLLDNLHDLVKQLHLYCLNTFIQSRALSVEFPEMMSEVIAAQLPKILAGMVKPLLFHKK

[4] = target: Voltage-gated inwardly rectifying potassium channel KCNH2 (Homo sapiens, UniProt Q12809); type: functional; details: read-out: AC50
Estrogen receptor = target: T4, Estrogen receptor (Homo sapiens, UniProt P03372)
T4 sequence (P03372 whole entry): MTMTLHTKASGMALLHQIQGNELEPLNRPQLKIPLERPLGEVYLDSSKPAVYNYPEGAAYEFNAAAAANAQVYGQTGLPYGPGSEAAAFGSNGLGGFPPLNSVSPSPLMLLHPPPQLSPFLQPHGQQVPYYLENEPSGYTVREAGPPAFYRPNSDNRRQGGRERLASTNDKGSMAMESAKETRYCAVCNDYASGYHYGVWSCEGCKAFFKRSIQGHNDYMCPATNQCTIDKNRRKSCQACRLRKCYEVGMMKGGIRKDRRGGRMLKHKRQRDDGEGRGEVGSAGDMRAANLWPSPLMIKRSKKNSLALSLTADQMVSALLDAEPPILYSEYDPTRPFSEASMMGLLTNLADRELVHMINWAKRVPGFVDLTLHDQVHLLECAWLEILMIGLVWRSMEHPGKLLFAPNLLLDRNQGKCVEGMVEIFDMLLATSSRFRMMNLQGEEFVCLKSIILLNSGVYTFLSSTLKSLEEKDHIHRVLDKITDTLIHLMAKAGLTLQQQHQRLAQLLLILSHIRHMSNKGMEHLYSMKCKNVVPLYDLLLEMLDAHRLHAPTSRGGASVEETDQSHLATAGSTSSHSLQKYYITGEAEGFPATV
Note: assay procedure not described here.

Delta-type opioid receptor, sequence (P41143 whole entry): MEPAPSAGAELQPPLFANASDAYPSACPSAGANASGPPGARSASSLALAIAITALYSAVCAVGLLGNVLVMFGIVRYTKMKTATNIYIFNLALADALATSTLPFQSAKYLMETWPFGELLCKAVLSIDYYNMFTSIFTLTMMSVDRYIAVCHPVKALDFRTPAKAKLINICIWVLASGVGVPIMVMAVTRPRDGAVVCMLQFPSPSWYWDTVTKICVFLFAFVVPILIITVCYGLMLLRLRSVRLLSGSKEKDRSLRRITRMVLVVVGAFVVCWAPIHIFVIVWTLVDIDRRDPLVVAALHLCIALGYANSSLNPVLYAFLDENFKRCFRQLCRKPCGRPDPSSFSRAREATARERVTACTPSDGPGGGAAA
Voltage-gated inwardly rectifying potassium channel KCNH2, sequence (Q12809 whole entry): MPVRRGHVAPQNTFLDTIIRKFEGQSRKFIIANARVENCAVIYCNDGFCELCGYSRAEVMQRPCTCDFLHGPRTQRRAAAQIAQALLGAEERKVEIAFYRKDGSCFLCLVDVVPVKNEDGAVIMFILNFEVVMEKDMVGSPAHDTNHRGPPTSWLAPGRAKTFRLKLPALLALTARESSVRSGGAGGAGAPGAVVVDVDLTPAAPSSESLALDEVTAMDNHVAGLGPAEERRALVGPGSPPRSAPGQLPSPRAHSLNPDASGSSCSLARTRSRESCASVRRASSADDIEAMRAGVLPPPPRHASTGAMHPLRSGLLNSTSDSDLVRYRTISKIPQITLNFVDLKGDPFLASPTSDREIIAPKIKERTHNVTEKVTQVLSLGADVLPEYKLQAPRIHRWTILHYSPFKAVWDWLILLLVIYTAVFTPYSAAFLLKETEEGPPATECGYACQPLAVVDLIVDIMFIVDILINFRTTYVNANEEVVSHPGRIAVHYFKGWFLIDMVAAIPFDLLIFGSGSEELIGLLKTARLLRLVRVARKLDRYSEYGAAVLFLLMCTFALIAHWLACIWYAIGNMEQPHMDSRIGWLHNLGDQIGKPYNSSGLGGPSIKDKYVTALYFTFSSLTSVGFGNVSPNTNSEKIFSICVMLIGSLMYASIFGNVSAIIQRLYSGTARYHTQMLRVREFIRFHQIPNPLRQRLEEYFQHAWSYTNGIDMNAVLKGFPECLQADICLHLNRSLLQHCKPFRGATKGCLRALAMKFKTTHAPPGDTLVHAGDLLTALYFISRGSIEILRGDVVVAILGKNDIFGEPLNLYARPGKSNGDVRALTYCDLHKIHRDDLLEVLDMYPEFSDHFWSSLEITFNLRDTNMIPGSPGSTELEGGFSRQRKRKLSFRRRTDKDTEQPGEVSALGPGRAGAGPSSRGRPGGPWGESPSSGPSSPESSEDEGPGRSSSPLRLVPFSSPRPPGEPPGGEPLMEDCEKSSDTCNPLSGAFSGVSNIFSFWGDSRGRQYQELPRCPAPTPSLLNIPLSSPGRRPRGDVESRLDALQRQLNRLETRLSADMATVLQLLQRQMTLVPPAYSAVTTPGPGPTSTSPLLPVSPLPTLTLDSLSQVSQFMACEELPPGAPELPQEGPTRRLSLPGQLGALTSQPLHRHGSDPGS
Vasopressin V2 receptor, sequence (P30518 whole entry): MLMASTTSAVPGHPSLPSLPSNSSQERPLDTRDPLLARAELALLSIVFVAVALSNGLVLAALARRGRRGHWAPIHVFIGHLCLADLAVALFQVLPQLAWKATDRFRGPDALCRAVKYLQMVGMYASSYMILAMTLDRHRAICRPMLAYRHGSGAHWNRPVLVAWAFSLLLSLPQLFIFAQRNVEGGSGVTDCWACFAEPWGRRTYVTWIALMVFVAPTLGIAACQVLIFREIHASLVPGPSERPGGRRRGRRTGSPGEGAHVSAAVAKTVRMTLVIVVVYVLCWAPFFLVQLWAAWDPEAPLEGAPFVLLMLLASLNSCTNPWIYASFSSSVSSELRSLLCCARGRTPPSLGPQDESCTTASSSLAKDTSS

SMILES	AC50 [1]	AC50 [2]	AC50 [3]	AC50 (Vasopressin V2 receptor)	AC50 (Progesterone receptor)	AC50 [4]	AC50 (Estrogen receptor)
COc1ccc(-c2ccc3cc(C(=O)O)ccc3c2)cc1C12CC3CC(CC(C3)C1)C2	> 30 µM	> 30 µM	> 30 µM	> 30 µM	4.2 µM	> 30 µM	
CNS(=O)(=O)Cc1ccc2[nH]cc(CCN(C)C)c2c1	> 30 µM	> 30 µM	> 30 µM	> 30 µM		> 30 µM	
CC(=O)O[C@H]1CC[C@@]2(C)C(=CC[C@@H]3[C@@H]2CC[C@]2(C)C(c4cccnc4)=CC[C@@H]32)C1 [ABIRATERONE ACETATE]	> 30 µM	> 30 µM	> 30 µM		> 30 µM	> 30 µM	
NCC(=O)CCC(=O)O [AMINOLEVULINIC ACID]	> 30 µM	> 30 µM	> 30 µM	> 30 µM	> 30 µM	> 30 µM	
O=C(O)CCCCCCCC(=O)O [AZELAIC ACID]	> 10 µM	> 30 µM		> 10 µM	> 10 µM	> 30 µM	
COc1ccc2c3c1O[C@H]1[C@@H](O)C=C[C@H]4[C@@H](C2)N(C)CC[C@@]341 [CODEINE]	> 10 µM		> 30 µM	> 30 µM		> 30 µM	> 30 µM
Cn1c(=O)c2c(ncn2CC2OCCO2)n(C)c1=O [DOXOFYLLINE]	> 30 µM	> 30 µM	> 30 µM	> 10 µM	> 30 µM	> 30 µM	
CCCCc1ncc(/C=C(\Cc2cccs2)C(=O)O)n1Cc1ccc(C(=O)O)cc1 [EPROSARTAN]	> 10 µM	> 10 µM	> 30 µM	> 30 µM		> 30 µM	
C[C@]1(O)CC[C@H]2[C@@H]3CCC4=CC(=O)CC[C@]4(C)[C@@]3(F)[C@@H](O)C[C@@]21C [FLUOXYMESTERONE]	> 10 µM	> 30 µM		> 10 µM		> 30 µM	
COc1ccc(CCN(C)CCCC(C#N)(c2cc(OC)c(OC)c(OC)c2)C(C)C)cc1OC (stereo unspecified) [GALLOPAMIL]	> 30 µM	> 30 µM	> 30 µM	> 30 µM		1.9 µM	
CCCC(=O)O[C@]1(C(=O)CO)CC[C@H]2[C@@H]3CCC4=CC(=O)CC[C@]4(C)[C@H]3[C@@H](O)C[C@@]21C [HYDROCORTISONE BUTYRATE]	> 10 µM	> 30 µM		> 10 µM		> 30 µM	
CC(C)C(=O)c1c(C(C)C)nn2ccccc12 [IBUDILAST]	> 30 µM	> 30 µM	> 30 µM	> 30 µM	> 30 µM	> 30 µM	
Nc1nc(N)nc(-c2cc(Cl)ccc2Cl)n1 [IRSOGLADINE]	> 30 µM		> 30 µM	> 30 µM	> 30 µM	> 30 µM	
CNC(C)CCC=C(C)C (stereo unspecified) [ISOMETHEPTENE]				> 30 µM	> 30 µM	> 30 µM	
CC(C)(C)c1cc(C(C)(C)C)c(NC(=O)c2c[nH]c3ccccc3c2=O)cc1O [IVACAFTOR]		> 30 µM		> 30 µM		> 30 µM	> 30 µM
CC(Oc1c(Cl)cccc1Cl)C1=NCCN1 (stereo unspecified) [LOFEXIDINE]	> 30 µM	> 30 µM	0.0071 µM	> 30 µM	> 30 µM	8.86 µM	
Cc1cccc(C(C)c2cnc[nH]2)c1C (stereo unspecified) [MEDETOMIDINE]	> 10 µM	> 30 µM		> 30 µM	> 30 µM	17.8 µM	
C[C@](N)(Cc1ccc(O)c(O)c1)C(=O)O [METHYLDOPA]	> 10 µM	> 30 µM		> 10 µM	> 30 µM	> 30 µM	
O=C(NCCN1CCOCC1)c1ccc(Cl)cc1 [MOCLOBEMIDE]	> 10 µM	> 30 µM		> 10 µM	> 10 µM	> 30 µM	
CCCc1nc(C(C)(C)O)c(C(=O)OCc2oc(=O)oc2C)n1Cc1ccc(-c2ccccc2-c2nnn[nH]2)cc1 [OLMESARTAN MEDOXOMIL]	> 10 µM	> 10 µM	> 30 µM	> 30 µM		> 30 µM	
N#Cc1ccc([C@H]2CCc3cncn32)c(F)c1 [OSILODROSTAT]		> 10 µM				19.7 µM	
O=C(O)/C=C/c1ccc(Cn2ccnc2)cc1 [OZAGREL]	> 30 µM	> 30 µM		> 30 µM	> 30 µM	> 30 µM	
CC[C@@H]1C(=O)OC[C@@H]1Cc1cncn1C [PILOCARPINE]		> 30 µM	> 30 µM	> 30 µM		> 30 µM	> 30 µM
CCCN(CCC)C(=O)C(CCC(=O)O)NC(=O)c1ccccc1 (stereo unspecified) [PROGLUMIDE]	> 10 µM	> 30 µM		> 30 µM	> 30 µM	> 30 µM	
C#C[C@]1(O)CC[C@H]2[C@@H]3CCc4cc(OC5CCCC5)ccc4[C@H]3CC[C@@]21C [QUINESTROL]	> 10 µM	> 30 µM		> 10 µM		> 30 µM	
CCN(CC)C(=O)N[C@H]1C[C@@H]2c3cccc4[nH]cc(c34)C[C@H]2N(C)C1 [TERGURIDE]	> 30 µM	> 30 µM	> 30 µM	> 30 µM	> 30 µM	18 µM	
C/C(O)=C(\C#N)C(=O)Nc1ccc(C(F)(F)F)cc1 [TERIFLUNOMIDE]	> 30 µM	> 30 µM	> 30 µM		> 30 µM	> 30 µM	
C[C@]12CC[C@H]3[C@@H](CCC4=CC(=O)CC[C@@]43C)[C@@H]1CC[C@@H]2O [TESTOSTERONE]	> 10 µM	> 30 µM		> 10 µM			
O=C(NCCNCC(O)COc1ccc(O)cc1)N1CCOCC1 (stereo unspecified) [XAMOTEROL]	> 30 µM	> 30 µM	> 30 µM	> 30 µM	> 30 µM	> 30 µM	
